Assay results from patent publication US20150250713A1, “Pharmaceutical Composition” (CIPLA LIMITED, priority 2012, published 2015).

Assay: Moisture uptake of HFA propellants
Type: physicochemical
Details: ratio versus HFA-227 (measured values)

FCC(F)(F)F [HFA-134 (a), 1,1,1,2-tetrafluoroethane]
moisture uptake compared to HFA-227: six times higher
